In US10543215B2, “Combination therapy of cardiac myosin activator and sinus node if current inhibitor” (AMGEN INC., priority 2015, dated 2020):

System: conscious telemetered beagle dogs
Experiment: Left-ventricular hemodynamic, mechanical and timing indices by radio-telemetry before and during IV OM or vehicle, on repeated oral IVA or placebo
Type: in vivo, beagle dog
Experimental: Healthy male beagle dogs (n=7) instrumented with radio-telemetry units providing continuous single-lead electrocardiogram (ECG), as well as systemic (arterial, AoP) and left-ventricular (LVP) pressure signals were used for this study. Following sling acclimation, the animals were assigned to receive repeated oral (via gavage) treatments with either Ivabradine (IVA, 5 mg/kg bid) or a volume-matched placebo-control (sterile water, CTRL) for 5 days, administered at a dose volume of 10 mL/kg, in a cross over design.
The animals were sling-restrained and were subjected to acute intravenous administration of either sterile water (VEH, on Days 4 and 11 of dosing) or Omecamtiv Mecarbil (OM, on Days 5 and 12 of dosing). OM treatments were performed over a 3-hour infusion duration, following a dose-escalation design targeting plasma concentrations of 600 and 1000 ng/mL (each over 90 minutes, with a 30 minute loading infusion followed by a 60 minute maintenance infusion) for a cumulative dose of 5.293 mg/kg (as shown in Table A below). The IV vehicle treatments were time- and volume-matched.
Telemetered data were collected continuously for at least 90 minutes prior to and during dosing, as well as for at least 20 hours post-dose. The LVP and ECG signals were digitized at a sampling rate of at least 1000 Hz. The data were analyzed for heart rate (HR) and left-ventricular hemodynamic/mechanical indices that were obtained from the pressure waveform, including mean systolic (MSP) and end-diastolic (filling, EDP) pressures, the peak rates of pressure change during systole/diastole (dP/dtmax/min), as well as the time-constant of relaxation (tau) and a contractility index (CI: dP/dtmax normalized by the pressure at dP/dtmax). The data were also analyzed for systolic and diastolic intervals, including the estimated durations of the systolic ejection (SET), contraction (CT), active relaxation (RT) and filling intervals (FT), as well as the systolic-to-diastolic interval ratio (S/D: SET/RT+FT), which were derived from the left-ventricular pressure waveform.
The left-ventricular indices were evaluated only in the sling-restrained animals before and during IV treatment with OM or vehicle. Cardiovascular responses at each dose level were monitored for up to 90 minutes, i.e., over 3 hours total (during IV dosing of VEH and OM on Days 4, 5, 11, and 12 in the dose administration paradigm). Overall, in-sling cardiovascular data are reported at the following pre-determined/targeted time points: prior to dosing (i.e., at baseline, PRE) and approximately at the end of each infusion period (i.e., up to 4 time points during dosing, D1 to D4). Signals were analyzed continuously in 5-minute epochs, with pre-administration (i.e., PRE) values representing the overall mean over at least 5-epochs (i.e., 25 minutes) taken immediately prior to the onset of dosing, while during-dosing values reflect 5-minute averages (i.e., 1 epoch) taken prior to the (estimated) termination of each infusion. Data are presented as both means with standard deviations in summarizing tables/figure; beat-to-beat plots against heart rate are part of the study file.

[1] = D1, end of 30-min loading infusion, target OM 600 ng/mL
[2] = D2, end of 60-min maintenance infusion, target OM 600 ng/mL
[3] = D3, end of 30-min loading infusion, target OM 1000 ng/mL
[4] = D4, end of 60-min maintenance infusion, target OM 1000 ng/mL
[5] = PRE, before IV dosing (baseline)
[6] = baseline after repeated oral IVA 5 mg/kg bid, mean pre-dosing averages across study days
[7] = baseline after repeated oral IVA 5 mg/kg bid, vs. placebo-control

Question: Which results are given for COc1cc2c(cc1OC)CC(=O)N(CCCN(C)C[C@H]1Cc3cc(OC)c(OC)cc31)CC2 [IVA]?
Answer: CT % vs. PRE [1]: 4%; CT (contraction time) [1]: 63.8 ms; EDP % vs. PRE [1]: −10%; EDP (left-ventricular end-diastolic pressure) [1]: 14.4 mmHg; FT % vs. PRE [1]: 11%; FT (filling time) [1]: 586 ms; HR % vs. PRE [1]: −9%; HR (heart rate) [1]: 76 bpm; MSP % vs. PRE [1]: 0%; MSP (left-ventricular mean systolic pressure) [1]: 138 mmHg; RT % vs. PRE [1]: 1%; RT (relaxation time) [1]: 88 ms; S/D % vs. PRE [1]: −4%; S/D (systolic to diastolic ratio, SET/RT + FT) [1]: 0.2; SET % vs. PRE [1]: 4%; SET (systolic ejection time) [1]: 161 ms; Tau % vs. PRE [1]: 3 ± 2%; Tau (left-ventricular relaxation time-constant) [1]: 28.7 ± 1.7 ms; Vmax % vs. PRE [1]: 0 ± 1%; Vmax (estimated maximal velocity of myocardial contractile-element shortening) [1]: 36.9 ± 1.3 s⁻¹; dP/dtmax % vs. PRE [1]: −2%; dP/dtmax (peak rate of LV pressure change during systole) [1]: 2,606 mmHg/s; dP/dtmin % vs. PRE [1]: −2%; dP/dtmin (peak rate of LV pressure change during diastole) [1]: −2,365 mmHg/s; CT % vs. PRE [2]: 9%; CT (contraction time) [2]: 67.2 ms; EDP % vs. PRE [2]: 0%; EDP (left-ventricular end-diastolic pressure) [2]: 15.3 mmHg; FT % vs. PRE [2]: 8%; FT (filling time) [2]: 571 ms; HR % vs. PRE [2]: −9%; HR (heart rate) [2]: 76 bpm; MSP % vs. PRE [2]: 5%; MSP (left-ventricular mean systolic pressure) [2]: 145 mmHg; RT % vs. PRE [2]: 4%; RT (relaxation time) [2]: 90 ms; S/D % vs. PRE [2]: 0%; S/D (systolic to diastolic ratio, SET/RT + FT) [2]: 0.25; SET % vs. PRE [2]: 6%; SET (systolic ejection time) [2]: 163 ms; Tau % vs. PRE [2]: 6 ± 2%; Tau (left-ventricular relaxation time-constant) [2]: 29.3 ± 1.0 ms; Vmax % vs. PRE [2]: −1 ± 1%; Vmax (estimated maximal velocity of myocardial contractile-element shortening) [2]: 36.7 ± 0.8 s⁻¹; dP/dtmax % vs. PRE [2]: 2%; dP/dtmax (peak rate of LV pressure change during systole) [2]: 2,704 mmHg/s; dP/dtmin % vs. PRE [2]: 4%; dP/dtmin (peak rate of LV pressure change during diastole) [2]: −2,492 mmHg/s; CT % vs. PRE [3]: 6%; CT (contraction time) [3]: 64.9 ms; EDP % vs. PRE [3]: −4%; EDP (left-ventricular end-diastolic pressure) [3]: 14.5 mmHg; FT % vs. PRE [3]: 24%; FT (filling time) [3]: 651 ms; HR % vs. PRE [3]: −17%; HR (heart rate) [3]: 69 bpm; MSP % vs. PRE [3]: 3%; MSP (left-ventricular mean systolic pressure) [3]: 143 mmHg; RT % vs. PRE [3]: 6%; RT (relaxation time) [3]: 92 ms; S/D % vs. PRE [3]: −8%; S/D (systolic to diastolic ratio, SET/RT + FT) [3]: 0.23; SET % vs. PRE [3]: 8%; SET (systolic ejection time) [3]: 167 ms; Tau % vs. PRE [3]: 5 ± 3%; Tau (left-ventricular relaxation time-constant) [3]: 29.2 ± 1.0 ms; Vmax % vs. PRE [3]: 1 ± 2%; Vmax (estimated maximal velocity of myocardial contractile-element shortening) [3]: 37.2 ± 0.7 s⁻¹; dP/dtmax % vs. PRE [3]: 0%; dP/dtmax (peak rate of LV pressure change during systole) [3]: 2,662 mmHg/s; dP/dtmin % vs. PRE [3]: 1%; dP/dtmin (peak rate of LV pressure change during diastole) [3]: −2,425 mmHg/s; CT % vs. PRE [4]: 11%; CT (contraction time) [4]: 67.9 ms; EDP % vs. PRE [4]: −9%; EDP (left-ventricular end-diastolic pressure) [4]: 14.2 mmHg; FT % vs. PRE [4]: 9%; FT (filling time) [4]: 577 ms; HR % vs. PRE [4]: −12%; HR (heart rate) [4]: 74 bpm; MSP % vs. PRE [4]: 4%; MSP (left-ventricular mean systolic pressure) [4]: 143 mmHg; RT % vs. PRE [4]: 5%; RT (relaxation time) [4]: 91 ms; S/D % vs. PRE [4]: 0%; S/D (systolic to diastolic ratio, SET/RT + FT) [4]: 0.25; SET % vs. PRE [4]: 7%; SET (systolic ejection time) [4]: 165 ms; Tau % vs. PRE [4]: 3 ± 2%; Tau (left-ventricular relaxation time-constant) [4]: 28.8 ± 1.5 ms; Vmax % vs. PRE [4]: 1 ± 1%; Vmax (estimated maximal velocity of myocardial contractile-element shortening) [4]: 37.3 ± 1.0 s⁻¹; dP/dtmax % vs. PRE [4]: 2%; dP/dtmax (peak rate of LV pressure change during systole) [4]: 2,702 mmHg/s; dP/dtmin % vs. PRE [4]: 2%; dP/dtmin (peak rate of LV pressure change during diastole) [4]: −2,457 mmHg/s; CT (contraction time) [5]: 61.4 ± 0.6 ms; EDP (left-ventricular end-diastolic pressure) [5]: 15.7 mmHg; FT (filling time) [5]: 535 ± 46 ms; HR (heart rate) [5]: 85 bpm; MSP (left-ventricular mean systolic pressure) [5]: 138 mmHg; RT (relaxation time) [5]: 87 ± 1 ms; S/D (systolic to diastolic ratio, SET/RT + FT) [5]: 0.26; SET (systolic ejection time) [5]: 155 ± 2 ms; Tau (left-ventricular relaxation time-constant) [5]: 27.9 ± 1.4 ms; Vmax (estimated maximal velocity of myocardial contractile-element shortening) [5]: 37.1 ± 1.1 s⁻¹; dP/dtmax (peak rate of LV pressure change during systole) [5]: 2,661 mmHg/s; dP/dtmin (peak rate of LV pressure change during diastole) [5]: −2,407 mmHg/s; CT [6]: 61 ± 1 ms; FT [6]: 577 ± 49 ms; HR [6]: 82 ± 5 bpm; LV-EDP [6]: 16 ± 2 mmHg; LV-MSP [6]: 137 ± 3 mmHg; LV-Tau [6]: 28.5 ± 1.4 ms; LV-Vmax [6]: 37.0 ± 1.0 s⁻¹; LV-dP/dtmax [6]: 2,644 ± 79 mmHg/s; LV-dP/dtmin [6]: −2,367 ± 91 mmHg/s; RT [6]: 88 ± 1 ms; S/D [6]: 0.24 ± 0.01; SET [6]: 157 ± 2 ms; CT change vs. CTRL [7]: (−9 ± 1) %; LV-MSP change vs. CTRL [7]: (4 ± 2) %; LV-Tau change vs. CTRL [7]: (−3 ± 3) %; LV-Vmax change vs. CTRL [7]: (5 ± 3) %; LV-dP/dtmin change vs. CTRL [7]: (8 ± 3) %; RT change vs. CTRL [7]: (−2 ± 2) %; SET change vs. CTRL [7]: (4 ± 2) %
